# Measurements published in patent publication US20110158980A1, “METHODS TO TREAT AND SCREEN FOR AGENTS TO TREAT OBESITY” (TRUSTEES OF TUFTS COLLEGE, priority 2008, published 2011).
# System: 3T3-L1 adipocytes
# Assay: Metabolic flux analysis (stoichiometric model) of adipocyte intermediary metabolism
# Assay type: cell-based
# Experimental: 3T3-L1 preadipocytes were plated onto 24-well plates and expanded in preadipocyte growth medium consisting of DMEM supplemented with calf serum (10% v/v), penicillin and streptomycin. Medium was replenished every other day. Two days post-confluence, the cells were induced to differentiate using an adipogenic cocktail (1 μg/ml insulin, 0.5 mM isobutylmethylxanthine, and 1 μM dexamethasone) added to a basal medium (DMEM with 10% fetal bovine serum and penicillin/streptomycin). After 48 hrs, the first medium was replaced with a second induction medium consisting of the basal adipocyte medium supplemented with only insulin. […] This basal medium was replenished every other day during the remainder of the culture experiments.
# A stoichiometric model of adipocyte central carbon metabolism was constructed as described previously (Si Y, Yoon J, Lee K. American journal of physiology 2007; 292:E1637-46). The model consisted of the major pathways of central carbon metabolism (Table 1). Intracellular fluxes were estimated by solving a constrained non-linear optimization problem with stoichiometric and thermodynamic constraints (Nolan R P, Fenley A P, Lee K. Metab Eng 2006; 8:30-45).
smiles,measurement,setting,value
O=C(O)Cc1ccccc1 [phenylacetate],Increase of lipolysis,5 mM PA,1.2 fold
same,Decrease of citrate transport out of the mitochondria,5 mM phenylacetate,40%
same,Decrease of pyruvate carboxylase flux,5 mM phenylacetate,23%
same,Increase of lipolysis,10 mM PA,1.4 fold
same,Calculated CO2 output lower,10 mM phenylacetate,23%
same,Decrease of PDC flux,10 mM phenylacetate,27%
same,Decrease of citrate transport out of the mitochondria,10 mM phenylacetate,46%
same,Decrease of pyruvate carboxylase flux,10 mM phenylacetate,33%
same,Flux RXN 1 Glycolysis: Glucose + ATP = Glucose 6-P + ADP,"PA 5 mM, day 12 post-induction",367.0 ± 17.6 mmol/g-DNA/2 days
same,Flux RXN 2 Glycolysis: Glucose 6-P = Fructose 6-P,"PA 5 mM, day 12 post-induction",359.9 ± 23.3 mmol/g-DNA/2 days
same,Flux RXN 3 Glycolysis: Fructose 6-P + ATP = Glyceraldehyde 3-P + Glycerone-P + ADP,"PA 5 mM, day 12 post-induction",364.7 ± 19.3 mmol/g-DNA/2 days
same,Flux RXN 4 Glycolysis: Glycerone-P = Glyceraldehyde 3-P,"PA 5 mM, day 12 post-induction",342.7 ± 18.4 mmol/g-DNA/2 days
same,Flux RXN 5 Glycolysis: Glyceraldehyde 3-P + NAD+ + ADP + Pi = P-Enolpyruvate + ATP + H2O,"PA 5 mM, day 12 post-induction",709.8 ± 35.8 mmol/g-DNA/2 days
same,Flux RXN 6 Glycolysis: P-Enolpyruvate + ADP + H+ = Pyruvate + ATP,"PA 5 mM, day 12 post-induction",784.6 ± 35.5 mmol/g-DNA/2 days
same,Flux RXN 7 Glycolysis: Pyruvate + NADH + H+ = Lactate + NAD+,"PA 5 mM, day 12 post-induction",410.4 ± 19.1 mmol/g-DNA/2 days
same,Flux RXN 8 Pentose phosphate pathway: Glucose 6-P + 2 NADP+ + H2O = Ribulose 5-P + CO2 + 2 NADPH + 2 H+,"PA 5 mM, day 12 post-induction",7.1 ± 7.8 mmol/g-DNA/2 days
same,Flux RXN 9 Pentose phosphate pathway: 3 Ribulose 5-P = 2 Fructose 6-P + Glyceraldehyde 3-P,"PA 5 mM, day 12 post-induction",2.4 ± 2.6 mmol/g-DNA/2 days
same,Flux RXN 10 TCA cycle (mitochondria) (PDC),"PA 5 mM, day 12 post-induction",312.7 ± 48.2 mmol/g-DNA/2 days
same,Flux RXN 11 TCA cycle (mitochondria) (PC),"PA 5 mM, day 12 post-induction",141.4 ± 13.2 mmol/g-DNA/2 days
same,Flux RXN 12 TCA cycle (mitochondria),"PA 5 mM, day 12 post-induction",200.9 ± 54.1 mmol/g-DNA/2 days
same,Flux RXN 13 TCA cycle (mitochondria),"PA 5 mM, day 12 post-induction",237.8 ± 52.0 mmol/g-DNA/2 days
same,Flux RXN 14 TCA cycle (mitochondria),"PA 5 mM, day 12 post-induction",251.0 ± 52.6 mmol/g-DNA/2 days
same,Flux RXN 15 TCA cycle (mitochondria),"PA 5 mM, day 12 post-induction",251.2 ± 52.7 mmol/g-DNA/2 days
same,Flux RXN 16 TCA cycle (mitochondria),"PA 5 mM, day 12 post-induction",171.3 ± 45.2 mmol/g-DNA/2 days
same,Flux RXN 17 TCA cycle: Citrate + CoA + ATP = Acetyl-CoA + Oxaloacetate + ADP + Pi,"PA 5 mM, day 12 post-induction",74.9 ± 9.0 mmol/g-DNA/2 days
same,Flux RXN 18 TCA cycle: Oxaloacetate + NADH + H+ = Malate + NAD+,"PA 5 mM, day 12 post-induction",0.0 ± 0.0 mmol/g-DNA/2 days
same,Flux RXN 19 TCA cycle: Malate + NADP+ = Pyruvate + CO2 + NADPH,"PA 5 mM, day 12 post-induction",79.9 ± 9.7 mmol/g-DNA/2 days
same,Flux RXN 20 TCA cycle: Citrate + NADP+ = 2-Oxoglutarate + CO2 + NADPH + H+,"PA 5 mM, day 12 post-induction",36.9 ± 7.3 mmol/g-DNA/2 days
same,Flux RXN 21 TCA cycle: Oxaloacetate + ATP = P-Enolpyruvate + CO2 + ADP,"PA 5 mM, day 12 post-induction",74.8 ± 9.0 mmol/g-DNA/2 days
same,Flux RXN 22 Oxidative phosphorylation (NADH + 0.5 O2),"PA 5 mM, day 12 post-induction",527.6 ± 214.3 mmol/g-DNA/2 days
same,Flux RXN 23 Oxidative phosphorylation (FADH2 + 0.5 O2),"PA 5 mM, day 12 post-induction",272.8 ± 53.3 mmol/g-DNA/2 days
same,Flux RXN 24 Palmitate biosynthesis,"PA 5 mM, day 12 post-induction",9.4 ± 1.1 mmol/g-DNA/2 days
same,Flux RXN 25 Tripalmitoylglycerol biosynthesis: Glycerone-P + 3 Palmitate to Tripalmitoylglycerol,"PA 5 mM, day 12 post-induction",22.0 ± 1.3 mmol/g-DNA/2 days
same,Flux RXN 26 Tripalmitoylglycerol + 3 H2O = Glycerol + 3 Palmitate,"PA 5 mM, day 12 post-induction",19.2 ± 1.4 mmol/g-DNA/2 days
same,Flux RXN 27 Tripalmitoylglycerol accumulation,"PA 5 mM, day 12 post-induction",2.8 ± 0.4 mmol/g-DNA/2 days
same,Flux RXN 28 Metabolism of ketone bodies,"PA 5 mM, day 12 post-induction",8.4 ± 0.3 mmol/g-DNA/2 days
same,Flux RXN 29 Metabolism of ketone bodies,"PA 5 mM, day 12 post-induction",0.0 ± 0.0 mmol/g-DNA/2 days
same,Flux RXN 30 Metabolism of ketone bodies (to 3-Hydroxybutyrate),"PA 5 mM, day 12 post-induction",17.0 ± 0.6 mmol/g-DNA/2 days
same,Flux RXN 31 Amino acid metabolism: Pyruvate + NH4+ + NADPH = Alanine,"PA 5 mM, day 12 post-induction",0.0 ± 0.0 mmol/g-DNA/2 days
same,Flux RXN 32 Amino acid metabolism: Aspartate + NH4+ = Asparagine,"PA 5 mM, day 12 post-induction",2.3 ± 0.1 mmol/g-DNA/2 days
same,Flux RXN 33 Amino acid metabolism: Aspartate = Oxaloacetate + NH4+ + NADH,"PA 5 mM, day 12 post-induction",0.0 ± 0.0 mmol/g-DNA/2 days
same,Flux RXN 34 Amino acid metabolism: Cysteine = Pyruvate + NH4+ + NADH,"PA 5 mM, day 12 post-induction",0.0 ± 0.0 mmol/g-DNA/2 days
same,Flux RXN 35 Amino acid metabolism: Glutamate = 2-Oxoglutarate + NH4+ + NADH,"PA 5 mM, day 12 post-induction",0.0 ± 0.0 mmol/g-DNA/2 days
same,Flux RXN 36 Amino acid metabolism: Glutamate + NH4+ + ATP = Glutamine,"PA 5 mM, day 12 post-induction",5.3 ± 0.4 mmol/g-DNA/2 days
same,Flux RXN 37 Amino acid metabolism: Serine + THF = Glycine,"PA 5 mM, day 12 post-induction",5.8 ± 0.2 mmol/g-DNA/2 days
same,Flux RXN 38 Amino acid metabolism: Histidine + THF = Glutamate + NH4+,"PA 5 mM, day 12 post-induction",2.7 ± 0.2 mmol/g-DNA/2 days
same,Flux RXN 39 Amino acid metabolism: Isoleucine + 2 CoA,"PA 5 mM, day 12 post-induction",8.1 ± 0.3 mmol/g-DNA/2 days
same,Flux RXN 40 Amino acid metabolism: Leucine + CoA + CO2 + ATP,"PA 5 mM, day 12 post-induction",8.6 ± 0.3 mmol/g-DNA/2 days
same,Flux RXN 41 Amino acid metabolism: Lysine = 2-Oxoadipate + 2 NH4+ + 3 NADH,"PA 5 mM, day 12 post-induction",0.0 ± 0.0 mmol/g-DNA/2 days
same,Flux RXN 42 Amino acid metabolism: 2-Oxoadipate + CoA,"PA 5 mM, day 12 post-induction",0.0 ± 0.0 mmol/g-DNA/2 days
same,Flux RXN 43 Amino acid metabolism: Methionine + Serine + ATP + CoA + THF,"PA 5 mM, day 12 post-induction",0.0 ± 0.0 mmol/g-DNA/2 days
same,Flux RXN 44 Amino acid metabolism: Phenylalanine + O2 + NADH = Tyrosine,"PA 5 mM, day 12 post-induction",0.0 ± 0.0 mmol/g-DNA/2 days
same,Flux RXN 45 Amino acid metabolism: Glutamate + ATP + 2 NADPH = Proline,"PA 5 mM, day 12 post-induction",0.0 ± 0.0 mmol/g-DNA/2 days
same,Flux RXN 46 Amino acid metabolism: Serine = Pyruvate + NH4+,"PA 5 mM, day 12 post-induction",0.0 ± 0.0 mmol/g-DNA/2 days
same,Flux RXN 47 Amino acid metabolism: Threonine + CoA to Glycine,"PA 5 mM, day 12 post-induction",0.1 ± 0.1 mmol/g-DNA/2 days
same,Flux RXN 48 Amino acid metabolism: Tryptophan + 3 O2 + NADPH = 2-Oxoadipate + Alanine + CO2 + NH4+,"PA 5 mM, day 12 post-induction",0.0 ± 0.0 mmol/g-DNA/2 days
same,Flux RXN 49 Amino acid metabolism: Tyrosine + 2 O2,"PA 5 mM, day 12 post-induction",0.2 ± 0.1 mmol/g-DNA/2 days
same,Flux RXN 50 Amino acid metabolism: Valine + CoA,"PA 5 mM, day 12 post-induction",5.1 ± 0.4 mmol/g-DNA/2 days
same,Flux RXN 51 Plasma exchange: Palmitate,"PA 5 mM, day 12 post-induction",1.0 ± 0.1 mmol/g-DNA/2 days
same,Flux RXN 52 Plasma exchange: Acetoacetate,"PA 5 mM, day 12 post-induction",0.2 ± 0.2 mmol/g-DNA/2 days
same,Flux RXN 53 Plasma exchange: Alanine,"PA 5 mM, day 12 post-induction",0.0 ± 0.0 mmol/g-DNA/2 days
same,Flux RXN 54 Plasma exchange: Aspartate,"PA 5 mM, day 12 post-induction",2.3 ± 0.1 mmol/g-DNA/2 days
same,Flux RXN 55 Plasma exchange: Cysteine,"PA 5 mM, day 12 post-induction",0.0 ± 0.0 mmol/g-DNA/2 days
same,Flux RXN 56 Plasma exchange: Glutamate,"PA 5 mM, day 12 post-induction",2.6 ± 0.2 mmol/g-DNA/2 days
same,Flux RXN 57 Plasma exchange: Glycine,"PA 5 mM, day 12 post-induction",5.9 ± 0.2 mmol/g-DNA/2 days
same,Flux RXN 58 Plasma exchange: Serine,"PA 5 mM, day 12 post-induction",5.8 ± 0.2 mmol/g-DNA/2 days
same,Flux RXN 59 Plasma exchange: Tyrosine,"PA 5 mM, day 12 post-induction",0.1 ± 0.1 mmol/g-DNA/2 days
same,Flux RXN 60 Plasma exchange: O2 (calculated oxygen uptake rate),"PA 5 mM, day 12 post-induction",400.5 ± 134.0 mmol/g-DNA/2 days
same,Flux RXN 61 Plasma exchange: CO2,"PA 5 mM, day 12 post-induction",805.5 ± 145.9 mmol/g-DNA/2 days
same,Flux RXN 62 Plasma exchange: NH4+,"PA 5 mM, day 12 post-induction",17.0 ± 1.0 mmol/g-DNA/2 days
same,Flux RXN 63 Mitochondrial exchange: Pyruvate,"PA 5 mM, day 12 post-induction",454.0 ± 54.4 mmol/g-DNA/2 days
same,"Flux RXN 64 Mitochondrial exchange: Malate in, Citrate out","PA 5 mM, day 12 post-induction",111.7 ± 15.8 mmol/g-DNA/2 days
